Data published in the NIST ThermoML archive (doi:10.1016/j.fluid.2017.11.013).
“And” between values parts separate entries of the source, which are not always exact repeats. Equal entries are not always repeated.

Settings: Fluid (supercritical or subcritical phases), Coaxial cylinder method

C=C [ethene]
Settings	thermal conductivity
285.04 K, 6160 kPa	0.06936 W/m/K
285.04 K, 6760 kPa	0.07168 W/m/K
285.04 K, 7250 kPa	0.07341 W/m/K
285.04 K, 8160 kPa	0.07598 W/m/K
285.04 K, 9010 kPa	0.07839 W/m/K
285.04 K, 9690 kPa	0.0804 W/m/K
285.04 K, 9800 kPa	0.08072 W/m/K
285.04 K, 9810 kPa	0.08067 W/m/K
285.04 K, 9830 kPa	0.0807 W/m/K
285.04 K, 9850 kPa	0.08058 W/m/K
285.04 K, 9900 kPa	0.08077 W/m/K
285.04 K, 9920 kPa	0.08085 W/m/K
285.04 K, 9950 kPa	0.08076 W/m/K and 0.08065 W/m/K
285.04 K, 10000 kPa	0.08079 W/m/K
285.04 K, 10180 kPa	0.08121 W/m/K
285.04 K, 10350 kPa	0.08166 W/m/K
285.04 K, 10570 kPa	0.08194 W/m/K
288.24 K, 4580 kPa	0.03085 W/m/K
288.24 K, 5100 kPa	0.03767 W/m/K
288.24 K, 5360 kPa	0.04634 W/m/K
288.24 K, 5510 kPa	0.05465 W/m/K
288.24 K, 5570 kPa	0.06007 W/m/K
288.24 K, 5630 kPa	0.06943 W/m/K
288.24 K, 5680 kPa	0.07371 W/m/K
288.24 K, 5790 kPa	0.0746 W/m/K
288.24 K, 5920 kPa	0.06841 W/m/K
288.24 K, 6000 kPa	0.06651 W/m/K
288.24 K, 6240 kPa	0.06542 W/m/K
288.24 K, 6570 kPa	0.06758 W/m/K
288.24 K, 7140 kPa	0.06951 W/m/K
294.62 K, 5100 kPa	0.03346 W/m/K
294.62 K, 5370 kPa	0.03618 W/m/K
294.62 K, 6200 kPa	0.05841 W/m/K
294.62 K, 6290 kPa	0.06125 W/m/K
294.62 K, 6530 kPa	0.06505 W/m/K
294.62 K, 6690 kPa	0.066 W/m/K
294.62 K, 6770 kPa	0.06592 W/m/K
294.62 K, 6870 kPa	0.06592 W/m/K
294.62 K, 6950 kPa	0.06591 W/m/K
294.62 K, 7030 kPa	0.0659 W/m/K
294.62 K, 7130 kPa	0.06589 W/m/K
294.62 K, 7360 kPa	0.06665 W/m/K
294.62 K, 7490 kPa	0.06627 W/m/K
294.62 K, 7670 kPa	0.06623 W/m/K
294.62 K, 7690 kPa	0.06625 W/m/K
294.62 K, 8210 kPa	0.06804 W/m/K
294.62 K, 8570 kPa	0.06916 W/m/K
294.62 K, 9220 kPa	0.07111 W/m/K
294.62 K, 9740 kPa	0.07276 W/m/K
294.62 K, 10280 kPa	0.07482 W/m/K
294.62 K, 10840 kPa	0.07574 W/m/K
301.6 K, 1010 kPa	0.02196 W/m/K
301.6 K, 1900 kPa	0.02294 W/m/K
301.6 K, 2940 kPa	0.02469 W/m/K
301.6 K, 3920 kPa	0.02736 W/m/K
301.6 K, 5010 kPa	0.03136 W/m/K
301.6 K, 5560 kPa	0.0359 W/m/K
301.6 K, 5610 kPa	0.03586 W/m/K
301.6 K, 6120 kPa	0.0417 W/m/K and 0.04209 W/m/K
301.6 K, 6550 kPa	0.0488 W/m/K
301.6 K, 6780 kPa	0.05244 W/m/K
301.6 K, 6930 kPa	0.05667 W/m/K
301.6 K, 7100 kPa	0.05988 W/m/K
